{"source": "ChEMBL document CHEMBL4261651", "about": "“Probing the ligand preferences of the three types of bacterial pantothenate kinase” (Bioorg Med Chem, 2018)", "key": {"Staphylococcus aureus [1]": {"system": "Staphylococcus aureus", "assay": "Growth inhibition of Staphylococcus aureus ATCC 29213 at 1000 uM after 16 hrs by broth microdilution method", "assay_type": "functional", "settings": "ATCC 29213, 16 h, read-out: GI"}, "Staphylococcus aureus [2]": {"system": "Staphylococcus aureus", "assay": "Antibacterial activity against Staphylococcus aureus ATCC 29213 after 16 hrs by broth microdilution method", "assay_type": "functional", "settings": "ATCC 29213, 16 h"}, "Staphylococcus aureus [3]": {"system": "Staphylococcus aureus", "assay": "Growth inhibition of Staphylococcus aureus ATCC 29213 at 860 uM after 16 hrs by broth microdilution method", "assay_type": "functional", "settings": "ATCC 29213, 16 h, read-out: GI"}, "Staphylococcus aureus [4]": {"system": "Staphylococcus aureus", "assay": "Growth inhibition of Staphylococcus aureus ATCC 29213 at 820 uM after 16 hrs by broth microdilution method", "assay_type": "functional", "settings": "ATCC 29213, 16 h, read-out: GI"}, "Staphylococcus aureus [5]": {"system": "Staphylococcus aureus", "assay": "Growth inhibition of Staphylococcus aureus ATCC 29213 at 550 uM after 16 hrs by broth microdilution method", "assay_type": "functional", "settings": "ATCC 29213, 16 h, read-out: GI"}, "Staphylococcus aureus [6]": {"system": "Staphylococcus aureus", "assay": "Growth inhibition of Staphylococcus aureus ATCC 29213 at 1540 uM after 16 hrs by broth microdilution method", "assay_type": "functional", "settings": "ATCC 29213, 16 h, read-out: GI"}, "Staphylococcus aureus [7]": {"system": "Staphylococcus aureus", "assay": "Growth inhibition of Staphylococcus aureus ATCC 29213 at 1230 uM after 16 hrs by broth microdilution method", "assay_type": "functional", "settings": "ATCC 29213, 16 h, read-out: GI"}, "[8]": {"target": "T1, Type III pantothenate kinase (Bacillus anthracis, UniProt Q81VX4)", "T1 sequence (Q81VX4 whole entry)": "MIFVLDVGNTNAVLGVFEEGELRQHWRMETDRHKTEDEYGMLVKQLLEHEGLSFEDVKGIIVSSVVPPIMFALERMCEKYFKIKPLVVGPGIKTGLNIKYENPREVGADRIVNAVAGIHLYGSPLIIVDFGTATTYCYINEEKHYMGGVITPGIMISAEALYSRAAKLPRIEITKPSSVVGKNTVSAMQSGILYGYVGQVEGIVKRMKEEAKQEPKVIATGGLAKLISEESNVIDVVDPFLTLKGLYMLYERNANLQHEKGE", "assay": "Inhibition of Bacillus anthracis pantothenate kinase 3"}}}
{"smiles": "COC(=O)CNC(=O)[C@H](O)C(C)(C)CO", "values": [{"measurement": "inhibition of growth at 1000 µM", "setting": "Staphylococcus aureus [1]", "value": 84, "unit": "%"}]}
{"smiles": "COC(=O)CCCNC(=O)[C@H](O)C(C)(C)CO", "values": [{"measurement": "inhibition of growth at 1000 µM", "setting": "Staphylococcus aureus [1]", "value": 16, "unit": "%"}]}
{"smiles": "CC(C)(CO)[C@@H](O)C(=O)NCCCC(=O)O", "note": "[HOPANTENIC ACID]", "values": [{"measurement": "inhibition of growth at 1000 µM", "setting": "Staphylococcus aureus [1]", "value": 87, "unit": "%"}]}
{"smiles": "CC(C)(CO)[C@@H](O)C(=O)NCC(=O)O", "values": [{"measurement": "inhibition of growth at 1000 µM", "setting": "Staphylococcus aureus [1]", "value": 18, "unit": "%"}]}
{"smiles": "CCCCCNC(=O)CCNC(=O)[C@H](O)C(C)(C)CO", "values": [{"measurement": "MIC", "setting": "Staphylococcus aureus [2]", "value": 14, "unit": "µM"}]}
{"smiles": "COC(=O)CCNC(=O)[C@H](O)C(C)(C)CO", "values": [{"measurement": "inhibition of growth at 1000 µM", "setting": "Staphylococcus aureus [1]", "value": 15, "unit": "%"}]}
{"smiles": "CCCCCn1cc(CNC(=O)[C@H](O)C(C)(C)CO)nn1", "values": [{"measurement": "inhibition of growth at 860 µM", "setting": "Staphylococcus aureus [3]", "value": -5, "unit": "%"}]}
{"smiles": "CCCCCc1cn(CCNC(=O)[C@H](O)C(C)(C)CO)nn1", "values": [{"measurement": "inhibition of growth at 820 µM", "setting": "Staphylococcus aureus [4]", "value": 72, "unit": "%"}]}
{"smiles": "CCCCCn1cc(CCNC(=O)[C@H](O)C(C)(C)CO)nn1", "values": [{"measurement": "inhibition of growth at 860 µM", "setting": "Staphylococcus aureus [3]", "value": 99, "unit": "%"}]}
{"smiles": "CCCCn1cc(CCNC(=O)[C@H](O)C(C)(C)CO)nn1", "values": [{"measurement": "inhibition of growth at 550 µM", "setting": "Staphylococcus aureus [5]", "value": 86, "unit": "%"}]}
{"smiles": "CC(C)(CO)[C@@H](O)C(=O)NCc1cn(CCc2ccccc2)nn1", "values": [{"measurement": "inhibition of growth at 1540 µM", "setting": "Staphylococcus aureus [6]", "value": 2, "unit": "%"}]}
{"smiles": "O=C(O)CCNC(=O)[C@H](O)CCO", "values": [{"measurement": "inhibition of growth at 1230 µM", "setting": "Staphylococcus aureus [7]", "value": 9, "unit": "%"}]}
{"smiles": "Nc1ncnc2c1ncn2[C@@H]1O[C@H](Cn2cc(CO[C@@H]3O[C@H](CO)[C@H](O)[C@H](O)[C@H]3O)nn2)[C@@H](O)[C@H]1O", "values": [{"measurement": "Ki", "setting": "[8]", "value": 164, "unit": "µM"}]}
{"smiles": "CCCc1cn(CCCNC(=O)[C@H](O)C(C)(C)CO)nn1", "values": [{"measurement": "inhibition of growth at 860 µM", "setting": "Staphylococcus aureus [3]", "value": -13, "unit": "%"}]}
